Test results from patent US10913983B2, “Sensitivity markers and uses for CDK7 inhibitors in breast cancers” (UNIVERSITY OF SOUTH CAROLINA, priority 2017, dated 2021).
Where two headings read alike, the source gives them in different places.

What was measured:
[1] = test system: panel of breast cancer cell lines; test: Cell proliferation MTT assay, cell line panel; format: cell-based
Protocol: (§1) Cells were seeded in 12-well plates at densities ranging from 10000-30000 cells/well and after 24 hours cells were treated with 10, 40 and 100 nM THZ1 in triplicate. After 7 days the cells were imaged using Zeiss Axiovert 200 microscope using a 20× objective lens. Additionally, cells were plated in 96-well plates at a density of 2000 cells/well and after 24 hours treated with 0-10 μM THZ1. After 2 and 7 days the growth of the cells was measured by MTT assay.
(§2) All results were presented as mean±standard deviation of 4-8 parallel assessments. Similar results were obtained from a minimum of two independent experiments. […] Densitometry was performed on duplicate immunoblots using ImageLab software (Biorad) and normalized to tubulin loading controls and then correlated with the THZ1 IC50 values of each cell line. Statistical analyses were performed using SPSS 18.0 (SPSS Inc). Bi-variant scatter graphs and Spearman rank analyses were performed to evaluate associations between protein levels, mRNA and response to inhibition. IC50 values were calculated for MTT assays using CompuSyn software.
To investigate the effect of CDK7 inhibition in a time and dose dependent manner, an extended panel of 11 breast cancer cell lines were screened for response to THZ1 after 2 and 7 days of treatment.

[2] = test system: breast cancer cell lines (TNBC, ER+HER2−, ER+HER2+ and ER−/HER2+); test: Cell proliferation, 12-well plates, bright-field imaging; format: cell-based; details: 100 nM, seven days of treatment
Protocol: as §1
The effects of different concentrations of THZ1 on breast cancer cell lines was examined. Cell lines included TNBC, ER+HER2−, ER+HER2+ and ER−/HER2+ and effects were studied over seven days of treatment.

[3] = test system: 549; details: fold change in gene expression, THZ1; cited from earlier work
[4] = test system: breast cancer cell lines; test: qPCR gene expression after THZ1; format: cell-based; details: 250 nM, 6 hours
Protocol: Cells were plated in 100 mm^2 petri dishes at a density of 1×10^6 cells/plate and allowed to grow for 3-4 days until the cells reached 80% confluency. Cells were treated with THZ1 or with vehicle control (DMSO). Total RNA was extracted using RNAeasy Mini Kit (Qiagen) and 1 μg of total RNA was used to generate cDNA using iScript cDNA synthesis kit (BioRad). Gene expression was quantified using iTaq Universal SYBR green super mix on a CFX384 Real time system (BioRad).

[5] = test system: MCF7; test: Cell proliferation MTT assay; format: cell-based
Protocol: as §1, §2

[6] = test system: MDA-MB-453; test: Cell proliferation MTT assay; format: cell-based
Protocol: as §1, §2

[7] = test system: JIMT-1; test: Cell proliferation MTT assay; format: cell-based; details: for IC50: MTT
Protocol: as §1, §2

[8] = test system: HCC1954; test: Cell proliferation MTT assay; format: cell-based
Protocol: as §1, §2

[9] = test system: MDA-MB-361; test: Cell proliferation MTT assay; format: cell-based
Protocol: as §1, §2

[10] = test system: HCC1937; test: Cell proliferation MTT assay; format: cell-based
Protocol: as §1, §2

[11] = test system: BT549; test: Cell proliferation MTT assay; format: cell-based
Protocol: as §1, §2

[12] = test system: T47D; test: Cell proliferation MTT assay; format: cell-based
Protocol: as §1, §2

[13] = test system: BT474; test: Cell proliferation MTT assay; format: cell-based
Protocol: as §1, §2

[14] = test system: MDA-MB-468 cells; details: fold change in gene expression, 250 nM THZ1; cited from earlier work
[15] = test system: T47D; details: fold change in gene expression, THZ1; cited from earlier work

## CN(C)C/C=C/C(=O)Nc1ccc(C(=O)Nc2cccc(Nc3ncc(Cl)c(-c4c[nH]c5ccccc45)n3)c2)cc1 [THZ1]
[1]; most sensitive cell line SKBR3 vs least sensitive cell line JIMT-1
  difference in sensitivity determined by IC50: 25 fold
[1]; two-day treatment, read-out: IC50 values of most cell lines
  IC50: 0.1 to 0.3 µM
[2]
  growth inhibition: inhibited the growth of all tested cell lines regardless of subtype
[3]
  BAMBI 549 FC: −2.97
  CDKN1B 549 FC: −3.06
  CITED2 549 FC: −4.12
  CYR61 549 FC: −2.96
  DKK1 549 FC: −5.01
  E2F8 549 FC: −3.09
  ELF3 549 FC: −1.11
  FADD 549 FC: −3.1
  FBXO5 549 FC: −4.09
  MARS2 549 FC: −3.73
  MOCS3 549 FC: −4.2
  MYC 549 FC: −3.06
  NEDD9 549 FC: −1.53
  PHLDA1 549 FC: −2.72
  PIM3 549 FC: −2.73
  PLK2 549 FC: −3.7
  TRIB1 549 FC: −4.07
  WEE1 549 FC: −2.95
  ZNF217 549 FC: −3.66
  ZNF627 549 FC: −3.39
[4]; MDA-MB-231 and T47D
  expression of SOX9 and STAT3: not inhibited
[4]; majority of tested cell lines
  expression of CITED2, CDKN1B and PLK2: significant decrease in expression
[4]; majority of the cell lines tested
  expression of EGFR, MYC and FOXC1: significantly inhibited
[5]; MCF7, 2 days, read-out: 2 day IC50
  IC50: 0.032 µM
[5]; MCF7, 7 days, read-out: 7 day IC50
  IC50: 0.059 µM
[6]; MDA-MB-453, 2 days, read-out: 2 day IC50
  IC50: 0.133 µM
[6]; MDA-MB-453, 7 days, read-out: 7 day IC50
  IC50: 0.012 µM
[7]; JIMT-1, 2 days, read-out: 2 day IC50
  IC50: 0.289 µM
[7]; JIMT-1, 7 days, read-out: 7 day IC50
  IC50: 0.087 µM
[7]; JIMT-1, <100 nM, 7 days of treatment
  response to low nanomolar concentrations: lack of significant response
[8]; HCC1954, 2 days, read-out: 2 day IC50
  IC50: 0.158 µM
[8]; HCC1954, 7 days, read-out: 7 day IC50
  IC50: 0.036 µM
[9]; MDA-MB-361, 2 days, read-out: 2 day IC50
  IC50: 0.133 µM
[9]; MDA-MB-361, 7 days, read-out: 7 day IC50
  IC50: 0.027 µM
[10]; HCC1937, 2 days, read-out: 2 day IC50
  IC50: 0.094 µM
[10]; HCC1937, 7 days, read-out: 7 day IC50
  IC50: 0.024 µM
[11]; BT549, 2 days, read-out: 2 day IC50
  IC50: 0.017 µM
[11]; BT549, 7 days, read-out: 7 day IC50
  IC50: 0.008 µM
[12]; 2 days, read-out: 2 day IC50
  IC50: 0.089 µM
[12]; 7 days, read-out: 7 day IC50
  IC50: 0.014 µM
[13]; BT474, 2 days, read-out: 2 day IC50
  IC50: 0.49 µM
[13]; BT474, 7 days, read-out: 7 day IC50
  IC50: 0.027 µM
[14]
  BAMBI 468 FC: −3.8
  CDKN1B 468 FC: −4.11
  CITED2 468 FC: −4.53
  CYR61 468 FC: −4.82
  DKK1 468 FC: −4.7
  E2F8 468 FC: −4.01
  ELF3 468 FC: −3.88
  FADD 468 FC: −3.93
  FBXO5 468 FC: −4.19
  MARS2 468 FC: −4.04
  MOCS3 468 FC: −3.84
  MYC 468 FC: −4.64
  NEDD9 468 FC: −4.03
  PHLDA1 468 FC: −3.71
  PIM3 468 FC: −4.05
  PLK2 468 FC: −3.99
  TRIB1 468 FC: −3.69
  WEE1 468 FC: −3.69
  ZNF217 468 FC: −3.77
  ZNF627 468 FC: −3.68
[15]
  BAMBI T47D FC: −1.74
  CDKN1B T47D FC: −2.3
  CITED2 T47D FC: −2.71
  CYR61 T47D FC: −1.96
  DKK1 T47D FC: −1.09
  E2F8 T47D FC: −4.01
  ELF3 T47D FC: −1.22
  FADD T47D FC: −3.29
  FBXO5 T47D FC: −2.65
  MARS2 T47D FC: −2.3
  MOCS3 T47D FC: −3.86
  MYC T47D FC: −2.68
  NEDD9 T47D FC: −3.32
  PHLDA1 T47D FC: −3.81
  PIM3 T47D FC: −2.54
  PLK2 T47D FC: −2.48
  TRIB1 T47D FC: −2.31
  WEE1 T47D FC: −1.96
  ZNF217 T47D FC: −2.77
  ZNF627 T47D FC: −2.75
